# Measurements as given in US20020054941A1, “Methods and compositions to enhance tenderness and value of meat” (The Board of Regents of the University of Nebraska, priority 2000, published 2002).
# Marks after values point to notes of the source that are not given here.
# Legend:
# spoilage micro-organisms = assay: Microbial stability (logarithmic microbiological growth); details: for Logarithmic Microbiological Growth Values, difference: difference day 5 - day 0
# Method: (§1) Thoracic limbs from 14 steers were chilled on the carcass (controls) or removed within 2 hours post-mortem and pumped to 10% of muscle weight with water, 200 mM or 400 mM sodium citrate solutions. The injections were performed at various sites along the muscle. The control remained on the carcass. Muscle pH and temperature were measured immediately prior to pumping. Experimental and control muscles were chilled at 2° C. for 24 hours. Steaks (2.54 cm thick) were removed after 24 hours from the Infraspinatus, Supraspinatus and Triceps brachii muscles and were either frozen immediately or aged for another 6 days and then evaluated. A consumer panel evaluated palatability juiciness, tenderness, connective tissue amount, and flavor desirability) on Infraspinatus and Triceps brachii steaks using 9-point hedonic scales (1 being very undesirable and 9 being very desirable) for each trait. Warner-Bratzler shear force values were determined on 1.27 cm-diameter cores from steaks that were broiled to an internal temperature of 70° C.
# There were no differences in initial microbial load among the treatments.
# Supraspinatus (SSP) = assay: Warner-Bratzler shear force of muscle pumped pre-rigor with sodium citrate; parameters: species or system steers; unit not given here
# Method: as §1
# Infraspinatus (ISP) = assay: as above; parameters: species or system steers; unit not given here
# Method: as §1
# Triceps brachii (TBR) = assay: as above; parameters: species or system steers; unit not given here
# Method: as §1
# [1] = system: semimembranosus beef muscles; assay: Muscle pH, pre-rigor injection of whole muscle
# Method: (§2) Experiment were conducted to test the effects of pre-rigor injection of several compounds. Effects of these compounds on pH, color, tenderness and other related traits of low-value beef cuts were investigated. Ten steers (22 to 24 mo of age, 515 to 676 kg live weight) were slaughtered according to current industry procedures. Pre-rigor semimembranosus (from the round), triceps brachii and supraspinatus muscles (from the chuck) were excised, after evisceration (approximately 1 hour post-mortem), from both sides of the carcass. Muscle sections were randomly assigned to the treatments: sodium citrate (NaC; 200 mM), sodium fluoride (NaF; 200 mM), sodium acetate (NaA; 200 mM), and calcium chloride (CaCl2; 300 mM). The control samples remained on the carcass at 2° C. for 24 hours to simulate commercial conditions. Following a cooling, control muscles were removed from each carcass (4 replicates), vacuum packaged and transferred to the holding cooler with the other cuts at 2° C. Calcium chloride treatment was included to be compared with the other treatments.
# (§3) At 2 hours post-mortem, each muscle was injected with a volume equal to 8% of the muscle weight using a four-needle hand injector. The temperature of solutions were 4° C. Each muscle was individually treated (2% of solution was added to give a total of 10% of muscle weight) and tumbled in a 75-pound capacity tumbler (Röschermatic, Oshabrück, Germany) for 30 min to insure uniform distribution of the solution.
# (§4) Samples of each muscle (approximately 100 g) were taken at 0 hour (before injection), 24, and 72 hours after injection for determination of pH, oxidation-reduction potential, glycogen content, R-values, NAD, and NADH. The samples were then immediately frozen in liquid nitrogen and stored at −80° C. until they were powdered and analyzed. Fresh muscle samples (approximately 20 g) were taken at 72 hours after injection and assayed immediately for water holding capacity and sarcomere length.
# (§5) Duplicate pre-rigor samples (5 g) were weighed from powdered sample and homogenized (Polytron, Brinkman Instruments, New York, N.Y.) in 50 mL of 5 mM iodoacetic acid, 150 mM potassium chloride (pH 7.0, 24° C.) to stop glycolysis (Ahn et al., 1992). The pH of the suspension was measured with a general purpose electrode (Corning Glass Works, Corning, N.Y.) attached to an Orion Model SA 720 pH meter (Orion Research, Inc., Boston, Mass.). Post-rigor muscle pH was determined by homogenizing 5 g of sample in 50 mL of deionized water (Winger et al., 1979).
# [2] = system: triceps brachii beef muscles; assay: Muscle pH, pre-rigor injection of whole muscle; details: 200 mM, calcium chloride 300 mM
# Method: as §2, §3, §4, §5
# [3] = system: supraspinatus beef muscles; assay: Muscle pH, pre-rigor injection of whole muscle
# Method: as §2, §3, §4, §5
# [4] = system: sternomandibularis beef muscles; assay: pH of pre-rigor injected sectioned muscle; details: injection 10% of muscle weight, 200 mM (glucose, calcium chloride 300 mM)
# Method: (§6) Pre-rigor beef muscle was sectioned and the sections were injected at approximately 1 hour post-mortem with a volume of treatment solution equal to 10% of the muscle weight. Objective color measurements were taken on pieces of each muscle section and the pieces were then frozen, powdered and stored at −80° C. for up to 10 days before testing pH and analyzing oxidation-reduction potential. Shear force was evaluated as described immediately above. Solutions used in this procedure were as follows: sodium citrate (200 mM), sodium acetate (200 mM), glucose (300 mM), calcium citrate (200 mM), calcium chloride (300 mM), injection with water, and no injection (control). The calcium citrate solution was prepared as a suspension using 0.25% carrageenan and 200 mM calcium citrate due to its insolubility in water. However, use of calcium citrate can be optimized by increasing solubility by means known in the art.
# [5] = system: sternomandibularis beef muscles; assay: Shear force of pre-rigor injected sectioned muscle; details: 200 mM (glucose, calcium chloride 300 mM)
# Method: Pre-rigor beef muscle was sectioned into 100 g. samples at approximately 3 hours post-mortem. The pieces were injected with 10 mL of treatment solution followed by marination in the solution for 24 hours at 2° C. before testing pH and recording visual color of the muscle sections. For evaluation of shear force, samples were thawed, cooked, sliced (approximately 6 mm by 6 mm) and then cooled before readings were taken. The solutions used for this procedure were as described above for homogenized muscle.
# as §6
# [6] = system: Infraspinatus (ISP) steaks; assay: Consumer panel palatability ratings of steaks; parameters: species or system steers; details: for Flavor / Tenderness: ISP, 9-point hedonic scale
# Method: as §1
# [7] = 24 h, 200 mM, calcium chloride 300 mM
# [8] = 72 h, 200 mM, calcium chloride 300 mM
# [9] = 400 mM, Infraspinatus, day 1 and day 7, P<0.10, data not shown
structure (smiles),measurement,setting,value
"O=C([O-])CC(O)(CC(=O)[O-])C(=O)[O-].[Na+].[Na+].[Na+] [Sodium citrate, sodium citrate]",Logarithmic Microbiological Growth Values,"spoilage micro-organisms; 200 mM, day 0",2.58
same,Logarithmic Microbiological Growth Values,"spoilage micro-organisms; 200 mM, day 5",5.45^b
same,"Logarithmic Microbiological Growth Values, difference",spoilage micro-organisms; 200 mM,2.88^b
same,Logarithmic Microbiological Growth Values,"spoilage micro-organisms; 400 mM, day 0",2.72
same,Logarithmic Microbiological Growth Values,"spoilage micro-organisms; 400 mM, day 5",5.11^b
same,"Logarithmic Microbiological Growth Values, difference",spoilage micro-organisms; 400 mM,no greater microbial growth than the control
same,"Logarithmic Microbiological Growth Values, difference","spoilage micro-organisms; 400 mM, listed as NaCit","2.40^a,b"
same,WBSF,"Supraspinatus (SSP); 200 mM, d1",4.09^a
same,WBSF,"Supraspinatus (SSP); 200 mM, d7",3.83^a
same,WBSF,"Supraspinatus (SSP); 400 mM, d1",3.91^a
same,WBSF,"Supraspinatus (SSP); 400 mM, d7",4.03^a
same,WBSF,"Infraspinatus (ISP); 200 mM, d1",3.57^b
same,WBSF,"Infraspinatus (ISP); 200 mM, d7",3.12^b
same,WBSF,"Infraspinatus (ISP); 400 mM, d1",3.32^a
same,WBSF,"Infraspinatus (ISP); 400 mM, d7",2.79^a
same,WBSF,"Triceps brachii (TBR); 200 mM, d1",3.85^a
same,WBSF,"Triceps brachii (TBR); 200 mM, d7",3.57^b
same,WBSF,"Triceps brachii (TBR); 400 mM, d1",3.55^a
same,WBSF,"Triceps brachii (TBR); 400 mM, d7",3.09^a
same,"pH, 0 h",[1]; 0 h (before injection),6.68
same,"pH, 24 h",[1]; [7],5.97^a
same,"pH, 72 h",[1]; [8],5.78^b
same,"pH, 0 h",[2]; 0 h (before injection),6.71
same,"pH, 24 h",[2]; 24 h after injection,5.97^a
same,"pH, 72 h",[2]; 72 h after injection,5.72^b
same,"pH, 0 h",[3]; 0 h (before injection),6.73
same,"pH, 24 h",[3]; [7],6.04^b
same,"pH, 72 h",[3]; [8],5.86^b
same,PH (0 h),[4]; 0 h,6.86
same,"pH, 72 h",[4]; 72 h,5.77^bc
same,"Shear force, kg (72 h)",[5],11.09^ab kg
same,Flavor,"[6]; 200 mM, d1","5.33^a,b"
same,Tenderness,"[6]; 200 mM, d1","5.36^a,b"
same,Flavor,"[6]; 200 mM, d7",5.35^a
same,Tenderness,"[6]; 200 mM, d7",5.68^a
same,Flavor,"[6]; 400 mM, d1",5.49^a*
same,Tenderness,"[6]; 400 mM, d1",5.67^a
same,Flavor,"[6]; 400 mM, d7",5.41^a
same,Tenderness,"[6]; 400 mM, d7",5.90^a
same,Connective tissue amount rating vs controls,[6]; [9],more desirable
same,Juiciness rating vs controls,[6]; [9],more desirable
